Experiment [1] has as its system peripheral blood CD3^+CD4^−CXCR3^+ T cells. Nature of the experiment: HNSCC patients, neoadjuvant anti-PD-1: peripheral blood CXCR3+ T cells. Type of experiment: in vivo, human. The settings on record: one week after first dose of nivolumab 240 mg IV, FIG. 13B. As for the experimental part:
FIGS. 13A-13D are a series of panels showing change in CXCR3^+ cells in response to checkpoint blockade. […] Peripheral blood was drawn at baseline and one week after anti-PD-1 therapy (nivolumab). Surgery was performed at week six for pathologic assessment. […] Patients are grouped by nodal status following neoadjuvant treatment (ypN). FIGS. 13C and 13D show HPV+ patients from FIG. 13B and HPV-patients from FIG. 13B, respectively. Given the low number of patient(s) with residual nodal disease (ypN+), statistics could not be accurately performed in the HPV+ and HPV− subgroups.
Patients with locoregionally advanced HNSCC were treated with anti-PD-1 (nivolumab, 240 mg, IV) three times Q2W. Radiation was administered following the first anti-PD-1 treatment, and surgery was performed at week 6 to assess pathologic status. Patients also received stereotactic body radiation therapy (SBRT) following the first dose of nivolumab. Peripheral blood was drawn at baseline and one week after administration of the first dose of nivolumab. […] As HPV+ and HPV-HNSCC have marked differences in natural history and/or behavior, these cohorts were also analyzed separately (FIGS. 13C and 13D). When comparing response to neoadjuvant therapy in the HPV+ and HPV− cohorts separately, the change in percent CXCR3^+CD3^+CD4^− T cells was more distinct.

The test system of a further experiment is CT26 tumors. Briefly: CT26 tumor model: ALK5 inhibitor with chemoradiation (RT+5FU), tumor growth and survival. Format: in vivo, mouse. As to conditions: FIG. 6B. The method, then: FIGS. 1A-1D are a series of panels showing that the TGFβR1 antagonist LY2157299 enhances chemo-radiation efficacy dependent on CD8α^+ cells in CT26 tumors. FIG. 1A is a treatment schema in the CT26 tumor model. Six to eight week old BALB/c mice were implanted subcutaneously in the left flank with 2×10^5 CT26 tumor cells. Seven days following implant, animals were randomized based on tumor size, and vehicle control or LY2157299 compound were administered by oral gavage twice daily every 12 hours at 150 mg/kg for 7 consecutive days. At day 14, some mice received five consecutive radiation treatments of 5 Gy targeted to tumor tissue along with 25 mg/kg injections of 5-fluorouracil (5FU) chemotherapy administered intraperitoneally on days 14, 16, and 18. LY treatment groups resumed BID oral dosing from days 21-27. Mean tumor growth (i) and survival (ii) were assessed three times per week up to 100 days or death (FIG. 1B). […] Arrows identify pSMAD2^+CD8^+ cells in vehicle mice. […] NS=not significant, *=p<0.05, **=p<0.01, ***=p<0.001.
(§1) FIGS. 6A-6D are a series of panels showing generation of tumor-specific immune memory following tumor eradication with TGFβ inhibition with chemoradiation. […] The number of mice cured over the total number of mice in each group is indicated in the top right corner. One representative experiment is shown reflective of two independent experiments. Mice who eradicated their tumors were rechallenged with CT26 and 4T1 tumors. CT26 tumor cells were rechallenged on the opposite flank as from the original cured tumor. In FIG. 6D, 4T1 and CT26 tumor establishment and growth was followed for up to 60 days post re-challenge. The number of tumors rejected per total mice rechallenged in each tumor type is indicated in the top right portion of the graph. ***=p<0.001
Animal studies and cell culture: C57BL/6, BALB/c, CD8Cre, Lyz2Cre, and Foxp3-eGFP-CreERT2 mice were purchased from the Jackson Laboratories (Bar Harbor, Maine). ALK5flox/flox mice were a generous gift from Andrew Weinberg (Providence Cancer Center). All transgenic mice were on C57BL/6 background. CT26, MC38, 4T1 and MCA205-OVA tumor cells were grown in DMEM medium supplemented with 10% heat-inactivated fetal bovine serum and 1% penicillin-streptomycin to 60-90% confluence prior to tumor implantation. All cells were washed 2× with 1×PBS and implanted subcutaneously in a 100 μl volume of 1×PBS in the lower flanks. 1×10^5 MC38 cells, 2×10^5 CT26 cells, 5×10^4 4 T1 cells, and 5×10^6 MCA205-OVA cells were used for tumor induction. Tumors were measured 3×/week until they reached the survival end-point of 144 mm^2. […] Following single cell preparation, cells were washed and resuspended in FACS buffer (1×PBS, 1% BSA, 2 mM EDTA) and counted prior to FACS staining using a Guava EasyCyte cytometer (Millipore). […]

A further experiment has as its system CT26 cells. Briefly: Rechallenge of cured mice with CT26 cells. Format: in vivo, mouse. The settings on record: cured animals (RT/5-FU/LY3200882), rechallenge at day 73 post-implant, FIG. 6C-D.
Description: as §1
(§2) In order to evaluate whether the improved efficacy of RT+5FU+LY (FIG. 1B) was due to the direct effect of ALK5 inhibition on CD8^+ T cells, LY treatment in ALK5^ΔCD8 mice was tested.

The next experiment relates to 4T1 cell line. Briefly: Rechallenge of cured mice with 4T1 cells. The settings on record: cured animals (RT/5-FU/LY3200882), 4T1 implanted simultaneously on opposite flank, FIG. 6C-D. Type of experiment: in vivo, mouse.
Description: as §1, §2

With nivolumab: anti-PD-1 antibody, the “change in peripheral blood CD3^+CD4^−CXCR3^+ T cells vs nodal status” value in experiment [1] is “decrease in CD3^+CD4^−CXCR3^+ T cells following neoadjuvant nivolumab correlated with clearance of nodal disease”.

As to `CC(C)(O)c1cc(Nc2cc(Oc3cn(C4CC4)nc3C3CCOCC3)ccn2)ccn1` [LY3200882], the “tumor cures (animals cured of total)” value in the experiment on CT26 tumors (CT26, LY3200882 with chemoradiation (RT/5-FU)) is 6 of 7. Besides, in the experiment with CT26 tumors (CT26, LY3200882 with chemoradiation, p<0.001 vs RT+5FU), the median survival entry is “not reached”. Moreover, the figures for the tumor rechallenge outcome in the experiment on CT26 cells and in the experiment with 4T1 cell line were “rejected tumor rechallenge” and “but not the immunologically distinct 4T1 cell line”, respectively.

The values are drawn from patent US12560591B2, “Methods of treatment with CD8 T cell-mediated immune therapy” (Providence Health & Services—Oregon, priority 2019, dated 2026).
